Test results: patent publication US20260077277A1, “DILUTABLE COMPOSITIONS AND PROCESSES FOR EXTRACTING AND REFINING POORLY WATER-SOLUBLE POLAR OILS FROM BIOMASS” (priority 2022, published 2026)

Experiments:
[1] = cited from earlier work
[2] = characteristic curvature (Cc), HLD framework; assay type: physicochemical; settings: obtained following procedure of Nouraei et al. (WO 2022/140843)

| Compound | water solubility [1] [wt %] | characteristic curvature (Cc) [2] |
| --- | --- | --- |
| C=CCc1ccc(O)c(OC)c1 [Eugenol, eugenol] | 0.14 | – |
| CCCCCc1cc(O)c2c(c1)OC(C)(C)[C@@H]1CCC(C)=C[C@@H]21 [THC, tetrahydrocannabinol] | – | +2.7 |
| C=C(C)[C@@H]1CCC(C)=C[C@H]1c1c(O)cc(CCCCC)cc1O [CBD, cannabidiol] | 0.0013 | – |
